Test system: PKB Ser473 phosphorylation in Rat1-myr-HA-p110 delta cells
Test: Reverse protein array, PKB Ser473 phosphorylation in Rat1-myr-HA-p110 delta cells
Assay type: cell-based
Details: Rattus norvegicus, 0.5 h, 30 minutes compound incubation, read-out: p-PKB/IC50_delta

| IC50 [nM] | Compound |
| --- | --- |
| 253 | CCNc1ncc(-c2ccc3ncc4c(c3c2)n(-c2ccc(N3CC[C@@H](O)C3)nc2C)c(=O)n4C)cc1COCC [Example 34.4, 8-(5-Ethoxymethyl-6-ethylamino-pyridin-3-yl)-1-[6-((R)-3-hydroxy-pyrrolidin-1-yl)-2-methyl-pyridin-3-yl]-3-methyl-1,3-dihydro-imidazo[4,5-c]quinolin-2-one] |
| 95.3 | Cc1nc(N2CC[C@H](O)C2)ccc1-n1c(=O)n(C)c2cnc3ccc(-c4cncc(OC(C)C)c4)cc3c21 [Example 32.8, 1-[6-((S)-3-Hydroxy-pyrrolidin-1-yl)-2-methyl-pyridin-3-yl]-8-(5-isopropoxy-pyridin-3-yl)-3-methyl-1,3-dihydro-imidazo[4,5-c]quinolin-2-one] |
| 39.9 | CCNc1ncc(-c2ccc3ncc4c(c3c2)n(-c2ccc(N3CC[C@@H](O)C3)nc2C)c(=O)n4C)cc1C(F)(F)F [Example 34.2, 8-(6-Ethylamino-5-trifluoromethyl-pyridin-3-yl)-1-[6-((R)-3-hydroxy-pyrrolidin-1-yl)-2-methyl-pyridin-3-yl]-3-methyl-1,3-dihydro-imidazo[4,5-c]quinolin-2-one] |
| 18.3 | CNc1ncc(-c2ccc3ncc4c(c3c2)n(-c2ccc(N3CC(O)C3)nc2C)c(=O)n4C)cc1C(F)(F)F [Example 29.4, 1-[6-(3-Hydroxy-azetidin-1-yl)-2-methyl-pyridin-3-yl]-3-methyl-8-(6-methylamino-5-trifluoromethyl-pyridin-3-yl)-1,3-dihydro-imidazo[4,5-c]quinolin-2-one] |
| 124 | CCOc1cc(-c2ccc3ncc4c(c3c2)n(-c2ccc(N3CCCC3)nc2C)c(=O)n4C)cnc1COC [Example 25.2, 8-(5-Ethoxy-6-methoxymethyl-pyridin-3-yl)-3-methyl-1-(2-methyl-6-pyrrolidin-1-yl-pyridin-3-yl)-1,3-dihydro-imidazo[4,5-c]quinolin-2-one] |
| 216 | COCc1ncc(-c2ccc3ncc4c(c3c2)n(-c2ccc(N3CCC3)nc2C)c(=O)n4C)cc1OC [Example 23.6, 1-(6-Azetidin-1-yl-2-methyl-pyridin-3-yl)-8-(5-methoxy-6-methoxymethyl-pyridin-3-yl)-3-methyl-1,3-dihydro-imidazo[4,5-c]quinolin-2-one] |
| 10.4 | CNc1ncc(-c2ccc3ncc4c(c3c2)n(-c2ccc(N(C)CCO)nc2C)c(=O)n4C)cn1 [Example 26.2, 1-{6-[(2-Hydroxy-ethyl)-methyl-amino]-2-methyl-pyridin-3-yl}-3-methyl-8-(2-methylamino-pyrimidin-5-yl)-1,3-dihydro-imidazo[4,5-c]quinolin-2-one] |
| 36 | CNc1ncc(-c2ccc3ncc4c(c3c2)n(-c2ccc(C(C)(C)O)nc2C)c(=O)n4C)cc1F [Example 31.1, 8-(5-Fluoro-6-methylamino-pyridin-3-yl)-1-[6-(1-hydroxy-1-methyl-ethyl)-2-methyl-pyridin-3-yl]-3-methyl-1,3-dihydro-imidazo[4,5-c]quinolin-2-one] |
| 39.7 | CCNc1cc(-c2ccc3ncc4c(c3c2)n(-c2ccc(N3CC(O)C3)nc2C)c(=O)n4C)cnc1CO [Example 29.2, 8-(5-Ethylamino-6-hydroxymethyl-pyridin-3-yl)-1-[6-(3-hydroxy-azetidin-1-yl)-2-methyl-pyridin-3-yl]-3-methyl-1,3-dihydro-imidazo[4,5-c]quinolin-2-one] |
| 23.8 | CNc1ccc(-c2ccc3ncc4c(c3c2)n(-c2ccc(N3CCC3)nc2C)c(=O)n4C)cn1 [Example 23.4, 1-(6-Azetidin-1-yl-2-methyl-pyridin-3-yl)-3-methyl-8-(6-methylamino-pyridin-3-yl)-1,3-dihydro-imidazo[4,5-c]quinolin-2-one] |
| 42.2 | Cc1nc(N2CCC2)ccc1-n1c(=O)n(C)c2cnc3ccc(-c4cncc(C(C)(C)O)c4)cc3c21 [Example 23.3, 1-(6-Azetidin-1-yl-2-methyl-pyridin-3-yl)-8-[5-(1-hydroxy-1-methyl-ethyl)-pyridin-3-yl]-3-methyl-1,3-dihydro-imidazo[4,5-c]quinolin-2-one] |

Second part, the compound before the results:

| Compound | IC50 [nM] |
| --- | --- |
| CNc1ccc(-c2ccc3ncc4c(c3c2)n(-c2ccc(F)nc2C)c(=O)n4C)cn1 [Example 7.4, 1-(6-Fluoro-2-methyl-pyridin-3-yl)-3-methyl-8-(6-methylamino-pyridin-3-yl)-1,3-dihydro-imidazo[4,5-c]quinolin-2-one] | 19.3 |
| Cc1ncccc1-n1c(=O)n(C)c2cnc3ccc(-c4cncc(N)c4)cc3c21 [Example 2.25, 8-(5-Amino-pyridin-3-yl)-3-methyl-1-(2-methyl-pyridin-3-yl)-1,3-dihydro-imidazo[4,5-c]quinolin-2-one] | 110 |
| Cc1ncccc1-n1c(=O)n(C)c2cnc3ccc(-c4ccc(C(N)=O)cc4)cc3c21 [Example 2.3, 4-[3-Methyl-1-(2-methyl-pyridin-3-yl)-2-oxo-2,3-dihydro-1H-imidazo[4,5-c]quinolin-8-yl]-benzamide] | 23.6 |
| Cc1nc(F)ccc1-n1c(=O)n(C)c2cnc3ccc(-c4cnc5c(ccn5C)c4)cc3c21 [Example 7.2, 1-(6-Fluoro-2-methyl-pyridin-3-yl)-3-methyl-8-(1-methyl-1H-pyrrolo[2,3-b]pyridin-5-yl)-1,3-dihydro-imidazo[4,5-c]quinolin-2-one] | 69.7 |
| Cc1cccnc1-n1c(=O)n(C)c2cnc3ccc(-c4cnc(N)c(C(F)(F)F)c4)cc3c21 [Example 3.12, 8-(6-Amino-5-trifluoromethyl-pyridin-3-yl)-3-methyl-1-(3-methyl-pyridin-2-yl)-1,3-dihydro-imidazo[4,5-c]quinolin-2-one] | 75.5 |
| Cc1cccnc1-n1c(=O)n(C)c2cnc3ccc(-c4ccc(C(N)=O)cc4)cc3c21 [Example 3.3, 4-[3-Methyl-1-(3-methyl-pyridin-2-yl)-2-oxo-2,3-dihydro-1H-imidazo[4,5-c]quinolin-8-yl]-benzamide] | 620 |
| Cc1ncccc1-n1c(=O)n(C)c2cnc3ccc(-c4cncc(N5CCC5)c4)cc3c21 [Example 2.29, 8-(5-Azetidin-1-yl-pyridin-3-yl)-3-methyl-1-(2-methyl-pyridin-3-yl)-1,3-dihydro-imidazo[4,5-c]quinolin-2-one] | 122 |
| Cc1ncccc1-n1c(=O)n(C)c2cnc3ccc(-c4cncc(NC(C)C)c4)cc3c21 [Example 2.24, 8-(5-Isopropylamino-pyridin-3-yl)-3-methyl-1-(2-methyl-pyridin-3-yl)-1,3-dihydro-imidazo[4,5-c]quinolin-2-one] | 28.9 |
| CNc1ncc(-c2ccc3ncc4c(c3c2)n(-c2ncccc2C)c(=O)n4C)cn1 [Example 3.4, 3-Methyl-8-(2-methylamino-pyrimidin-5-yl)-1-(3-methyl-pyridin-2-yl)-1,3-dihydro-imidazo[4,5-c]quinolin-2-one] | 742 |
| Cc1ncccc1-n1c(=O)n(C)c2cnc3ccc(-c4cnc(N)c(C(F)(F)F)c4)cc3c21 [Example 2.11, 8-(6-Amino-5-trifluoromethyl-pyridin-3-yl)-3-methyl-1-(2-methyl-pyridin-3-yl)-1,3-dihydro-imidazo[4,5-c]quinolin-2-one] | 20.9 |
| Cc1ncccc1-n1c(=O)n(C)c2cnc3ccc(-c4ccc(OCCCN(C)C)nc4)cc3c21 [Example 2.10, 8-[6-(3-Dimethylamino-propoxy)-pyridin-3-yl]-3-methyl-1-(2-methyl-pyridin-3-yl)-1,3-dihydro-imidazo[4,5-c]quinolin-2-one] | 227 |

— patent publication US20100311714A1, “1H-IMIDAZO[4,5-c]QUINOLINONE COMPOUNDS” (priority 2009, published 2010)
